Where two headings read alike, the source gives them in different places.
Tests used:
Experiment in all cases: Radiolabeled ATP kinase assay, panel of 60 kinases (Table S5)
Format in all cases: biochemical
[1] = biological target: T1, panel of 60 human kinases (Homo sapiens, UniProt P49840); conditions: GSK3a; 0.1 μM; 10 μM ATP; read-out: % Enzyme Activity (relative to DSMO controls)
T1 construct: purchased Reaction Biology Corp
Method in brief: (§1)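 Cell-free radiolabeled-ATP kinase assays across a panel of 60 kinases; each compound tested at 0.1 μM and 0.5 μM for inhibition.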

[2] = biological target: T2, panel of 60 human kinases (Homo sapiens, UniProt P11802); conditions: 0.1 μM, 10 μM ATP, read-out: % Enzyme Activity (relative to DSMO controls)
T2 construct: purchased Reaction Biology Corp
T2 sequence (P11802 whole entry): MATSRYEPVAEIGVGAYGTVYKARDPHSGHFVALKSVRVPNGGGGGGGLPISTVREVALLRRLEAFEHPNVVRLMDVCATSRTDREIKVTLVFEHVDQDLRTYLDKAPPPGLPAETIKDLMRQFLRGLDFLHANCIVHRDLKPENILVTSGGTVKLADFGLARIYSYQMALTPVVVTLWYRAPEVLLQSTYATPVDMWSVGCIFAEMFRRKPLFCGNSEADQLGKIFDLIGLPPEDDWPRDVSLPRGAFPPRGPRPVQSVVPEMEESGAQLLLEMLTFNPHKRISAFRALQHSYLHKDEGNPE
Method in brief: as §1

[3] = biological target: T3, panel of 60 human kinases (Homo sapiens, UniProt Q08345); conditions: DDR1; 0.1 μM; 10 μM ATP; read-out: % Enzyme Activity (relative to DSMO controls)
T3 construct: purchased Reaction Biology Corp
T3 sequence (Q08345 19-913): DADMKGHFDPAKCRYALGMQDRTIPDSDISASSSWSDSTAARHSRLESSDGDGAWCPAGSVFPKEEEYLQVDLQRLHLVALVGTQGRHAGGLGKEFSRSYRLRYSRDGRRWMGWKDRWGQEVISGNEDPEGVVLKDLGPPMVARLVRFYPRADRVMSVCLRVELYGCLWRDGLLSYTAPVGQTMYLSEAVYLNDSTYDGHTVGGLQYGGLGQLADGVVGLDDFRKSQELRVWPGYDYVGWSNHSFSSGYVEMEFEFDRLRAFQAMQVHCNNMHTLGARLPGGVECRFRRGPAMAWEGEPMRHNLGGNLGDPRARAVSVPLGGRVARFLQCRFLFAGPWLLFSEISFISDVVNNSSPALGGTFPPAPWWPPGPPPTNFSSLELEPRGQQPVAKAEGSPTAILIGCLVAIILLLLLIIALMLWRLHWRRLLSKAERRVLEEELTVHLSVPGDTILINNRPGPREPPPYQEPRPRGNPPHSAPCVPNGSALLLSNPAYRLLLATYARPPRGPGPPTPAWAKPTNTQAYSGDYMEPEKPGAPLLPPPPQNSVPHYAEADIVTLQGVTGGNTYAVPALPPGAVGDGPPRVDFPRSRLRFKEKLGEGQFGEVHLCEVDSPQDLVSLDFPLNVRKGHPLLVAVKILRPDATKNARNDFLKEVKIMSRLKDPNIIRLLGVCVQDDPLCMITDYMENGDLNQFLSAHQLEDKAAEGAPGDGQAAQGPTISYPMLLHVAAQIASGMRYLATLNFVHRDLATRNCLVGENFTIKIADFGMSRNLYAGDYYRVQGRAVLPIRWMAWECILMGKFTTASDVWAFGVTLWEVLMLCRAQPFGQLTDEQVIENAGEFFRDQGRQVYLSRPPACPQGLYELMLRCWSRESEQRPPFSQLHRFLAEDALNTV
Method in brief: as §1

[4] = biological target: T4, panel of 60 human kinases (Homo sapiens, UniProt P08581); conditions: c-MET; 0.1 μM; 10 μM ATP; read-out: % Enzyme Activity (relative to DSMO controls)
T4 construct: purchased Reaction Biology Corp
Method in brief: as §1

[5] = biological target: T5, panel of 60 human kinases (Homo sapiens, UniProt O95819); conditions: HGK/MAP4K4; 0.1 μM; 10 μM ATP; read-out: % Enzyme Activity (relative to DSMO controls)
T5 construct: purchased Reaction Biology Corp
Method in brief: as §1

[6] = biological target: T6, panel of 60 human kinases (Homo sapiens, UniProt Q9UM73); conditions: ALK; 0.1 μM; 10 μM ATP; read-out: % Enzyme Activity (relative to DSMO controls)
T6 construct: purchased Reaction Biology Corp
Method in brief: as §1

[7] = biological target: T7, panel of 60 human kinases (Homo sapiens, UniProt Q00534); conditions: 0.1 μM, 10 μM ATP, read-out: % Enzyme Activity (relative to DSMO controls)
T7 construct: purchased Reaction Biology Corp
T7 sequence (Q00534 whole entry): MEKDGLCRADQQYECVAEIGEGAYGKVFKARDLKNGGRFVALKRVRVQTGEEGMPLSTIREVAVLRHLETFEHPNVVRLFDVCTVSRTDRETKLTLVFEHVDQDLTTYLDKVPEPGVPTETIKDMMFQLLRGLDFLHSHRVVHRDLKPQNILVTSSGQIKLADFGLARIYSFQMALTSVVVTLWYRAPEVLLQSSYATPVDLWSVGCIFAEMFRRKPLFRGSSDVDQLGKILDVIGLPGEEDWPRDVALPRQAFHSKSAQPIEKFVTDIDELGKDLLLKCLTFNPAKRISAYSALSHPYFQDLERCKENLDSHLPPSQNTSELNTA
Method in brief: as §1

[8] = biological target: T8, panel of 60 human kinases (Homo sapiens, UniProt Q00526); conditions: CDK3/cyclin E; 0.1 μM; 10 μM ATP; read-out: % Enzyme Activity (relative to DSMO controls)
T8 construct: purchased Reaction Biology Corp
T8 sequence (Q00526 whole entry): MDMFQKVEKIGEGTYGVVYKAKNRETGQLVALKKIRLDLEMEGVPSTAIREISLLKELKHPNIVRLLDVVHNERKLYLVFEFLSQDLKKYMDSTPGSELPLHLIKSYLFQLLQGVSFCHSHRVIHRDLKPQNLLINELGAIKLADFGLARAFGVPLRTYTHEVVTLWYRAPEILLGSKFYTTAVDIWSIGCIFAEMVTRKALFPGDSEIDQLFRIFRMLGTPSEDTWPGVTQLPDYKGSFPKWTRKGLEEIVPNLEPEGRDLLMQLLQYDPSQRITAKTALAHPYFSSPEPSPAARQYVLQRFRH
Method in brief: as §1

[9] = biological target: T9, panel of 60 human kinases (Homo sapiens, UniProt Q00535); conditions: 0.1 μM, 10 μM ATP, read-out: % Enzyme Activity (relative to DSMO controls)
T9 construct: purchased Reaction Biology Corp
T9 sequence (Q00535 whole entry): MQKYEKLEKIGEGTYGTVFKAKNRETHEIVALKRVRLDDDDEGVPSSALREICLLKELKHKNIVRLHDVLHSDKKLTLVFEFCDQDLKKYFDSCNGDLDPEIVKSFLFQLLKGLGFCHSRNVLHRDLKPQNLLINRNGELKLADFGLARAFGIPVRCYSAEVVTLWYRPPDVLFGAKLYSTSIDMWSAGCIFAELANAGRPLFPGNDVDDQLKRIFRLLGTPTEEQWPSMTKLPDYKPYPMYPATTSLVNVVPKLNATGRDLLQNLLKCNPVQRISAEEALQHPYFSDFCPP
Method in brief: as §1

[10] = biological target: T10, panel of 60 human kinases (Homo sapiens, UniProt O15264); conditions: P38d/MAPK13; 0.1 μM; 10 μM ATP; read-out: % Enzyme Activity (relative to DSMO controls)
T10 construct: purchased Reaction Biology Corp
T10 sequence (O15264 1-365): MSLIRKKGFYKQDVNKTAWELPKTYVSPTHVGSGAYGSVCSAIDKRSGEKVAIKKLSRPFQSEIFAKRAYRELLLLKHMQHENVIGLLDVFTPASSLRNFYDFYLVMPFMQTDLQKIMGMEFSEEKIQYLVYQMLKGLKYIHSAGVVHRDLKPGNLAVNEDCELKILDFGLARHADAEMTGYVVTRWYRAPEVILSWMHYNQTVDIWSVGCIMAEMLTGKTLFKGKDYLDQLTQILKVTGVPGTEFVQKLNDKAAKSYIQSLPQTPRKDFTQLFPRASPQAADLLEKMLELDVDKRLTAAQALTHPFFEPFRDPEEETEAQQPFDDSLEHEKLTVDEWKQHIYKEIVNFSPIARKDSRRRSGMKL
Method in brief: as §1

[11] = biological target: T11, panel of 60 human kinases (Homo sapiens, UniProt P42684); conditions: ABL2/ARG; 0.1 μM; 10 μM ATP; read-out: % Enzyme Activity (relative to DSMO controls)
T11 construct: purchased Reaction Biology Corp
Method in brief: as §1

[12] = biological target: T12, panel of 60 human kinases (Homo sapiens, UniProt P00519); conditions: ABL1; 0.1 μM; 10 μM ATP; read-out: % Enzyme Activity (relative to DSMO controls)
T12 construct: purchased Reaction Biology Corp
T12 sequence (P00519 whole entry): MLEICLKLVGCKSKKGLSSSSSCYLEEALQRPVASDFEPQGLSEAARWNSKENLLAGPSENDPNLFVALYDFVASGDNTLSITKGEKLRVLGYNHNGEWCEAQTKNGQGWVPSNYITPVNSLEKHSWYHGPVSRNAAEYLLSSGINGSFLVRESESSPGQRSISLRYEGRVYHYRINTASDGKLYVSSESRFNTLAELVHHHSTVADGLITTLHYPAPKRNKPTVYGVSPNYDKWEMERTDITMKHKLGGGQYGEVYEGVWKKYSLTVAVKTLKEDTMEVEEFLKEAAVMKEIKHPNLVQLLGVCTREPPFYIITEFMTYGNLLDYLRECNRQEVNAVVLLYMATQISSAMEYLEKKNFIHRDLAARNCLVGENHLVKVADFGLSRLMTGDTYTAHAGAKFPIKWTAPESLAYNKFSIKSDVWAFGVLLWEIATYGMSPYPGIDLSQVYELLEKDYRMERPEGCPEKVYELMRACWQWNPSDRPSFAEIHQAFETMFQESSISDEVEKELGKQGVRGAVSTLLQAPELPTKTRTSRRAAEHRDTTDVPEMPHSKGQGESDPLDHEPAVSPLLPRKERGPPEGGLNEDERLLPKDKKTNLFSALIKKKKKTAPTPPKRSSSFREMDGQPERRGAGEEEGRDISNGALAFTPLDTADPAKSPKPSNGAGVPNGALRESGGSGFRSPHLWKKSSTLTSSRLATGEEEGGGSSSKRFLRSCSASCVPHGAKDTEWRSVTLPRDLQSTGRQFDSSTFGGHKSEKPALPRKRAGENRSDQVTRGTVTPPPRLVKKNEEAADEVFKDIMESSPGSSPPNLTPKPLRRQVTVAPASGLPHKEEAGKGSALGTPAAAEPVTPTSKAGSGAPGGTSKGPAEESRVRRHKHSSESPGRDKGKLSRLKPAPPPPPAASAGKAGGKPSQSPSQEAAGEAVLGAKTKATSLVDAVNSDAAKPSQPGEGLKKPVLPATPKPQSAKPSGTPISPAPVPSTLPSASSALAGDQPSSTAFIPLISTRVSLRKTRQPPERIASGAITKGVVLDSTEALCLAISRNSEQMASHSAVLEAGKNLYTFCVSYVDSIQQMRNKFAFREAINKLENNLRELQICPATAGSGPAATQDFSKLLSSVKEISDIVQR
Method in brief: as §1

[13] = biological target: T13, panel of 60 human kinases (Homo sapiens, UniProt P21802); conditions: FGFR2; 0.1 μM; 10 μM ATP; read-out: % Enzyme Activity (relative to DSMO controls)
T13 construct: purchased Reaction Biology Corp
Method in brief: as §1

[14] = biological target: T14, panel of 60 human kinases (Homo sapiens, UniProt Q9Y4K4); conditions: KHS/MAPK4K5; 0.1 μM; 10 μM ATP; read-out: % Enzyme Activity (relative to DSMO controls)
T14 construct: purchased Reaction Biology Corp
T14 sequence (Q9Y4K4 whole entry): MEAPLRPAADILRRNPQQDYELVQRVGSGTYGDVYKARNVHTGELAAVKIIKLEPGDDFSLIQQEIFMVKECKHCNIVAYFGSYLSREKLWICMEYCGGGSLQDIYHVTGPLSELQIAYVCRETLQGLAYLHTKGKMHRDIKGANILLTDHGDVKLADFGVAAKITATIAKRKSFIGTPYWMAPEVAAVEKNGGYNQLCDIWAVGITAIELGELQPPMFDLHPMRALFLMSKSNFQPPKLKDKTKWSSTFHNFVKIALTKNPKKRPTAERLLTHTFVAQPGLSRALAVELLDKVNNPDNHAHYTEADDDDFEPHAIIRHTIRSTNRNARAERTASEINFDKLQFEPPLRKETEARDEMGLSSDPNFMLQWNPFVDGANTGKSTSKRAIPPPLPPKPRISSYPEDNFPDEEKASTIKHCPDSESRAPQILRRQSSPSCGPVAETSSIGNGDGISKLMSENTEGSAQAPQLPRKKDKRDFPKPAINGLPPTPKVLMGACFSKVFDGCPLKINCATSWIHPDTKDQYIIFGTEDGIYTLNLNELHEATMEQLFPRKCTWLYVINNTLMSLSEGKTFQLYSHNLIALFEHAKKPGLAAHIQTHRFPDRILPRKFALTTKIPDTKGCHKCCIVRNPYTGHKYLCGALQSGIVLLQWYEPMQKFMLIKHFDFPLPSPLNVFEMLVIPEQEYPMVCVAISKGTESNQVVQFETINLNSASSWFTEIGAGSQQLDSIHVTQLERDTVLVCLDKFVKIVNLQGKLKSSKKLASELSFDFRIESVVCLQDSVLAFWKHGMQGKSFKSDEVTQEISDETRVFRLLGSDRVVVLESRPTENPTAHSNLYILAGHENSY
Method in brief: as §1

T1 sequence (P49840 whole entry): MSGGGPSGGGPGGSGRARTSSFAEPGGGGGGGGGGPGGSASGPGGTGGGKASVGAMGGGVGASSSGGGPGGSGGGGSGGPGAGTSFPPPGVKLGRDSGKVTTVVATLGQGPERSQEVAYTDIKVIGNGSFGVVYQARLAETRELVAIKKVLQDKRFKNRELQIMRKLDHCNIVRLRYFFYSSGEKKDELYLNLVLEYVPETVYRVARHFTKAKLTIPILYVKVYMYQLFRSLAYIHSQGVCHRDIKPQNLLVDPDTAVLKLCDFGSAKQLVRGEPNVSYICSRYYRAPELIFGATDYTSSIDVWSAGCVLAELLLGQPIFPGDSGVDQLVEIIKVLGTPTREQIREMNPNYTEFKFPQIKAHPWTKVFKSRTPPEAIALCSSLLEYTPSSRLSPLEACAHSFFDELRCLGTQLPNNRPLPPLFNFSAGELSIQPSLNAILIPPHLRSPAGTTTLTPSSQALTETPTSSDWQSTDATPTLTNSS

Cc1nn(C)c(C)c1-c1c[nH]c2ncc(-c3ccc(CN4CCN(C)CC4)cc3)cc12 [Compound 7ai, 5-(4-((4-Methylpiperazin-1-yl)methyl)phenyl)-3-(1,3,5-trimethyl-1H-pyrazol-4-yl)-1H-pyrrolo[2,3-b]pyridine]
remaining activity at 0.1 µM [1]: 84.7% | remaining activity at 0.1 µM ([2]; CDK4/cyclin D1): 65.9% | remaining activity at 0.1 µM ([2]; CDK4/cyclin D3): 65.4% | remaining activity at 0.1 µM [3]: 76.5% | remaining activity at 0.1 µM [4]: 77.4% | remaining activity at 0.1 µM [5]: 9.15% | remaining activity at 0.1 µM [6]: 76.2% | remaining activity at 0.1 µM ([7]; CDK6/cyclin D1): 47.9% | remaining activity at 0.1 µM ([7]; CDK6/cyclin D3): 76% | remaining activity at 0.1 µM [8]: 96% | remaining activity at 0.1 µM ([9]; CDK5/p25): 93.2% | remaining activity at 0.1 µM ([9]; CDK5/p35): 87.9% | remaining activity at 0.1 µM [10]: 106% | remaining activity at 0.1 µM [11]: 44.4% | remaining activity at 0.1 µM [12]: 26.3% | remaining activity at 0.1 µM [13]: 80.9% | remaining activity at 0.1 µM [14]: 16.5%
